Experimental data published in ChEMBL document CHEMBL1201862, “PubChem BioAssay data set” (2004).
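The compound was tested at five concentrations on cells cultured in 96-well plates, with a 48-hour exposure period. At the GI50, growth is halved.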 Calls of active or inactive are those of the source. Cut-off read from the data, not from the text of the source: active = GI50 up to about 1.1 µM and inactive = higher.

Tests used:
Assay in all cases: NCI-60 cell line screen, 48 h
SK-MEL-2 = system: SK-MEL-2
SK-MEL-5 = system: SK-MEL-5
COLO 205 = system: COLO 205
HCT-15 = system: HCT-15
SK-MEL-28 = system: SK-MEL-28
EKVX = system: EKVX
NCI-H460 = system: NCI-H460
MOLT-4 = system: MOLT-4
Malme-3M = system: Malme-3M
LOX IMVI = system: LOX IMVI
OVCAR-4 = system: OVCAR-4
IGROV-1 = system: IGROV-1
CCRF-CEM = system: CCRF-CEM
A549 = system: A549
OVCAR-5 = system: OVCAR-5
NCI-H522 = system: NCI-H522
SNB-75 = system: SNB-75
SF-295 = system: SF-295
HCC 2998 = system: HCC 2998
KM12 = system: KM12

Row | Structure (SMILES) | GI50 (SK-MEL-2) | GI50 (SK-MEL-5) | GI50 (COLO 205) | GI50 (HCT-15) [µM] | GI50 (SK-MEL-28) | GI50 (EKVX) | GI50 (NCI-H460) | GI50 (MOLT-4) | GI50 (Malme-3M) | GI50 (LOX IMVI) | GI50 (OVCAR-4) | GI50 (IGROV-1) | GI50 (CCRF-CEM) | GI50 (A549) | GI50 (OVCAR-5) | GI50 (NCI-H522) | GI50 (SNB-75) | GI50 (SF-295) | GI50 (HCC 2998) | GI50 (KM12)
1 | CN(CC(=O)O)CC(=O)O | > 100 µM (inactive) | 31 µM (inactive) | 68.2 µM (inactive) | > 100 | > 100 µM (inactive) | > 100 µM (inactive) | > 100 µM (inactive) | > 100 µM (inactive) | > 100 µM (inactive) | > 100 µM (inactive) | > 100 µM (inactive) | > 100 µM (inactive) | > 100 µM (inactive) | > 100 µM (inactive) | > 100 µM (inactive) | > 100 µM (inactive) | 0.427 µM (active) | > 100 µM (inactive) | > 100 µM (inactive) | > 100 µM (inactive)
2 | Nc1nc(Cl)nc2c1ncn2C1CC(O)C(CO)O1 (stereo not given) | > 100 µM (inactive) | 5.12 µM (inactive) | 33.4 µM (inactive) | 45.9 | 43.3 µM (inactive) | 1.21 µM (inactive) | 7.28 µM (inactive) | 0.15 µM (active) | > 100 µM (inactive) | 3.62 µM (inactive) | > 100 µM (inactive) | 81.8 µM (inactive) | 0.0713 µM (active) | 4.26 µM (inactive) | 1.78 µM (inactive) | 25.5 µM (inactive) | 36.6 µM (inactive) | 67.9 µM (inactive) | 19.3 µM (inactive) | > 100 µM (inactive)
3 | O=C1CCCN1CCC/N=c1/cc2n(-c3ccc(Cl)cc3)c3ccccc3nc-2cc1Nc1ccc(Cl)cc1 | 13.1 µM (inactive) | 13 µM (inactive) | 1.41 µM (inactive) | 4.52 | 23.8 µM (inactive) | 13.1 µM (inactive) | 7.06 µM (inactive) | 3.66 µM (inactive) | 16.5 µM (inactive) | 7.71 µM (inactive) | 5.57 µM (inactive) | 2.75 µM (inactive) | 12.6 µM (inactive) | 15.7 µM (inactive) | 17 µM (inactive) | 9.23 µM (inactive) | 25.6 µM (inactive) | 19.3 µM (inactive) | 5.18 µM (inactive) | 13.4 µM (inactive)
4 | CC(=O)c1c(-c2ccccc2)c(-c2ccc(OCCN(C)C)cc2)n2ccccc12 | 19.1 µM (inactive) | 10.3 µM (inactive) | 14 µM (inactive) | 10.7 | 15.2 µM (inactive) | 17.5 µM (inactive) | 13.2 µM (inactive) | 15 µM (inactive) | 11.9 µM (inactive) | 15.7 µM (inactive) | 24.8 µM (inactive) | 16.6 µM (inactive) | 21 µM (inactive) | 21.2 µM (inactive) | 47.8 µM (inactive) | 14.1 µM (inactive) | 12.4 µM (inactive) | 17.2 µM (inactive) | 14.6 µM (inactive) | 13.5 µM (inactive)
5 | COc1ccc2nc(-n3c(/C=C/c4ccccc4O)nc4ccccc4c3=O)sc2c1 | 88.3 µM (inactive) | 19.7 µM (inactive) | > 100 µM (inactive) | 60.1 | 31.4 µM (inactive) | 8.51 µM (inactive) | > 100 µM (inactive) | 32.9 µM (inactive) | 71.6 µM (inactive) | 69.5 µM (inactive) | > 100 µM (inactive) | 39.6 µM (inactive) | 16.1 µM (inactive) | 39.4 µM (inactive) | > 100 µM (inactive) | 58.1 µM (inactive) | 72.1 µM (inactive) | 80.5 µM (inactive) | > 100 µM (inactive) | 64.4 µM (inactive)
6 | C=C1C(=O)O[C@@H]2[C@H](O)[C@@H](C)[C@@H]3C=CC(=O)[C@@]3(C)[C@@H](OC(=O)/C(C)=C/C)[C@H]12 | 0.557 µM (active) | 1.18 µM (inactive) | 0.344 µM (active) | 0.377 | 0.344 µM (active) | 0.774 µM (active) | 0.412 µM (active) | 0.344 µM (active) | 0.914 µM (active) | 0.869 µM (active) | 1.35 µM (inactive) | 0.459 µM (active) | 0.254 µM (active) | 1.98 µM (inactive) | 3.81 µM (inactive) | 0.0889 µM (active) | 2.03 µM (inactive) | 3.75 µM (inactive) | 0.656 µM (active) | 1.01 µM (active)
7 | CC(C)(C)c1ccc2c(c1)OP1(Oc3c(Cl)cc(Cl)c4cccnc34)(O2)Oc2ccc(C(C)(C)C)cc2O1 | 10.2 µM (inactive) | 8.51 µM (inactive) | 13.4 µM (inactive) | 4.53 | 11.3 µM (inactive) | 5.16 µM (inactive) | 3.8 µM (inactive) | 2.81 µM (inactive) | 10.8 µM (inactive) | 5.55 µM (inactive) | 10.3 µM (inactive) | 8.55 µM (inactive) | 3.12 µM (inactive) | 6 µM (inactive) | 13.7 µM (inactive) | 2.9 µM (inactive) | 15.5 µM (inactive) | 5.42 µM (inactive) | 11.3 µM (inactive) | 6.87 µM (inactive)
8 | COc1cc2c(cc1O)N=C[C@@H]1CC[C@@H](O)N1C2=O.COc1cc2c(cc1O)N=C[C@@H]1CC[C@H](O)N1C2=O | 0.433 µM (active) | 0.583 µM (active) | 0.738 µM (active) | 0.74 | 0.977 µM (active) | 1.87 µM (inactive) | 2.54 µM (inactive) | 0.615 µM (active) | 0.597 µM (active) | 0.473 µM (active) | 3.55 µM (inactive) | 1.83 µM (inactive) | 0.369 µM (active) | 5.6 µM (inactive) | 2.99 µM (inactive) | 0.159 µM (active) | 1.02 µM (active) | 0.984 µM (active) | 0.863 µM (active) | 1.38 µM (inactive)
9 | CC(=O)C(CN1CCCCC1)C(c1ccccc1)c1c(O)c2ccccc2oc1=O (stereo not given) | > 100 µM (inactive) | > 100 µM (inactive) | > 100 µM (inactive) | > 100 | > 100 µM (inactive) | > 100 µM (inactive) | > 100 µM (inactive) | > 100 µM (inactive) | > 100 µM (inactive) | > 100 µM (inactive) | > 100 µM (inactive) | > 100 µM (inactive) | > 100 µM (inactive) | > 100 µM (inactive) | > 100 µM (inactive) | > 100 µM (inactive) | > 100 µM (inactive) | > 100 µM (inactive) | > 100 µM (inactive) | > 100 µM (inactive)
10 | CCCCCCCCCCCCSC(=S)c1c(C)[nH]n(CCCCCCCCCCCC)c1=O | 78.2 µM (inactive) | > 100 µM (inactive) | > 100 µM (inactive) | 65.3 | > 100 µM (inactive) | 27.5 µM (inactive) | 50.5 µM (inactive) | > 100 µM (inactive) | 34.6 µM (inactive) | > 100 µM (inactive) | > 100 µM (inactive) | > 100 µM (inactive) | 48.4 µM (inactive) | 40.5 µM (inactive) | > 100 µM (inactive) | 99.5 µM (inactive) | > 100 µM (inactive) | > 100 µM (inactive) | > 100 µM (inactive) | > 100 µM (inactive)
11 | O=c1c(C(c2ccc(OCc3ccccc3)cc2)c2c(O)oc3ccccc3c2=O)c(O)oc2ccccc12 | 61.1 µM (inactive) | 29.6 µM (inactive) | 46 µM (inactive) | 41.7 | 78 µM (inactive) | 39 µM (inactive) | 35 µM (inactive) | 37.3 µM (inactive) | 28.6 µM (inactive) | 34.2 µM (inactive) | 46.1 µM (inactive) | 77.4 µM (inactive) | 38.2 µM (inactive) | 40.9 µM (inactive) | 75.2 µM (inactive) | 27.2 µM (inactive) | 18.6 µM (inactive) | 61.2 µM (inactive) | 35.1 µM (inactive) | 29.6 µM (inactive)
